No end group written: not given here. Me3 = trimethyl (trimethylated lysine)
Columns and labels:
[1] = molecular target: T1, interaction between P53 and MDM2 (Homo sapiens, UniProt Q00987); test: Intracellular detection of the P53-MDM2 interaction in HEK293 cells co-transfected with GFP-NUPN-P53 and mCherry-MDM2; assay type: cell-based; settings: system 8, final concentration of 5 μM, same field before and after treatment
Method: Each recombinant vector obtained in step I was transfected (or co-transfected) into HEK293 cells (adherent culture) according to the following combinations, and the transfection reagent Hifectin I (Beijing Dinoao Biotechnology Co., Ltd.) was used, and the operation was performed according to the instruction of the reagent. The combinations and the amount of the transfection vector(s) per 105 HEK293 cells were as follows:
combination 1: pcDNA3.1-GFP-NUPN, the transfection dosage of the vector was 1 μg; combination 2: pcDNA3.1-mCherry, the transfection dosage of the vector was 1 μg; combination 3: pcDNA3.1-GFP-NUPN+pcDNA3.1-mCherry, the transfection dosages of these two vectors were 0.5 μg and 0.5 μg, respectively; combination 4: pcDNA3.1-GFP-NUPN-P53, the transfection dosage of the vector was 1 μg; combination 5: pcDNA3.1-GFP-NUPN-P53+pcDNA3.1-mCherry, the transfection dosages of these two vectors were 0.5 μg and 0.5 μg, respectively; combination 6: pcDNA3.1-mCherry-MDM2, the transfection dosage of the vector was 1 μg; combination 7: pcDNA3.1-GFP-NUPN+pcDNA3.1-mCherry-MDM2, the transfection dosages of these two vectors were 0.5 μg and 0.5 μg, respectively; combination 8: pcDNA3.1-GFP-NUPN-P53+pcDNA3.1-mCherry-MDM2, the transfection dosages of these two vectors were 0.5 μg and 0.5 μg, respectively. […]

[2] = molecular target: T1, interaction between P53 and MDM2; test: Phase transition droplet detection of the effect of a regulatory factor on the P53-MDM2 interaction (SGS-P53, mCherry-MDM2, His-SGP); assay type: binding; set-up: His-tag (N); made in house; host or cells: E. coli BL21 (DE3); settings: MI-773 1.25-25 μM, ampicillin 25 μM; SGS-P53, mCherry-MDM2 and His-SGP all 0.5 μM; static incubation at 4° C.
Method: the solutions of SGS-P53, mCherry-MDM2, His-SGP and ampicillin were mixed, and then 20 μL of the resulting mixture was transferred to a 384-microwell plate to obtain an ampicillin control system and the concentrations of SGS-P53, mCherry-MDM2 and His-SGP were all 0.5 μM in the ampicillin control system, and the concentration of ampicillin was 25 μM;
According to the above system, the solutions of SGS-P53, mCherry-MDM2, His-SGP and MI-773 were mixed, and then 20 μL of the resulting mixture was transferred into a 384-microwell plate. Different concentrations of MI-773 were set to obtain experimental systems with different concentrations of MI-773. The concentration of MI-773 in each experimental system was 0 (i.e., KMEI buffer), 1.25, 2.5, 5, 10, 15, and 25 μM, respectively, one concentration per well, and in each experimental system, the concentrations of SGS-P53, mCherry-MDM2 and His-SGP were all 0.5 μM.
Each of the above systems was subjected to static incubation at 4° C. until the phase transition droplets in the systems in which phase transitions occurred completely settled to the bottom of the well plate, and the image of each system was collected using a confocal high-content imaging microscope and the intensity of the red fluorescence signal in the phase transition droplets in each well plate was counted and analyzed.

[3] = molecular target: T2, interaction between FKBP and FRB (Homo sapiens, UniProt P42345+P62942); test: Phase transition droplet detection of the effect of a regulatory factor on the FKBP-FRB interaction (SGS-FKBP, mCherry-FRB, His-SGP); assay type: binding; settings: rapamycin 0.2-1.0 μM, ampicillin control, mCherry-FRB and His-SGP all 1 μM, static incubation at 4° C.
T2 construct: His-SGS (His-tag, SmF, GFP, SH3 and linking regions); His-tag (N); made in house; host or cells: E. coli BL21 (DE3)
From the text: Different concentrations of rapamycin were set to obtain experimental systems with different concentrations of rapamycin.

CD = molecular target: T3, CD (Homo sapiens, UniProt P83916); test: Phase transition droplet detection of the interaction between H3K9me3 and CD (SGS-CD, His-SGP, Hfq-mCherry-PDZ); assay type: binding; settings: systems 15-20 with Hfq-mCherry-PDZ; mixture completely composed of the named peptide; all components 1 μM
T3 construct: His-SGS (His-tag, SmF, GFP, SH3 and linking regions); made in house; host or cells: E. coli BL21 (DE3)
Method: The concentrations of His-SGS, SGS-CD, His-SGP, Hfq-mCherry-PDZ, mCherry-PDZ and the mixture of H3K9me3-KKETPV and H3K9-KKETPV in the corresponding systems were all 1 μM:
In Table 2, “+” represents that the substance is contained; “−” represents that the substance is not contained; “*” represents a mixture of H3K9me3-KKETPV and H3K9-KKETPV. In the systems 9-14, the molar percentages of H3K9me3-KKETPV in the mixture of H3K9me3-KKETPV and H3K9-KKETPV were 0, 0.2, 0.4, 0.6, 0.8 and 1.0, respectively, and in the systems 15-20, the molar percentages of H3K9me3-KKETPV in the mixture of H3K9me3-KKETPV and H3K9-KKETPV were 0, 0.2, 0.4, 0.6, 0.8 and 1.0, respectively.
Each of the above systems was subjected to a static incubation at 4° C. until the phase transition droplets in the systems in which phase transitions occurred completely settled to the bottom of the well plate, and the images were collected using a confocal high-content imaging microscope.

T1 sequence (Q00987 with tags, fused parts or gaps): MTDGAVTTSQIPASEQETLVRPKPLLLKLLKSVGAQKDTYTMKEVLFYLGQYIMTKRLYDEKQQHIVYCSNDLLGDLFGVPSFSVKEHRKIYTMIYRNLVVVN
T3 sequence (P83916 19-83): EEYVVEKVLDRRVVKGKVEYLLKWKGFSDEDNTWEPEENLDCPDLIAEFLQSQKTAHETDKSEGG
T2 sequence (P62942 with tags, fused parts or gaps): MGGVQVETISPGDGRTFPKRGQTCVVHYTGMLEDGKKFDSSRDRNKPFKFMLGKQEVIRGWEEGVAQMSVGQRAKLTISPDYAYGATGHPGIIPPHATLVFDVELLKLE
T2 sequence (P42345 with tags, fused parts or gaps): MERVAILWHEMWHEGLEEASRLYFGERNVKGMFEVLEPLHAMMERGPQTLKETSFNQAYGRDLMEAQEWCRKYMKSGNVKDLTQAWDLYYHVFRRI

Compound	effect on the interaction between P53 and MDM2 in cells (accumulation of red fluorescent signal in the second phase) [1]	effect on the interaction between P53 and MDM2 (red fluorescence signal in the phase transition droplets) [2]	effect on the interaction between FRB and FKBP (red fluorescence signal in the phase transition droplets) [3]	red fluorescence signal (mCherry) in the phase transition droplets (CD)
CN[C@@H](C)C(=O)N[C@H](C(=O)N1CCC[C@H]1C(=O)Nc1snnc1-c1ccccc1)C1CCCCC1 [GDC0152]	does not affect			
ARTK (Me) 3QTARGGSGGSGGSWGGSKKETPVAV (ARTK(Me3)QTARGGSGGSGGSWGGSKKETPVAV) [H3K9me3-KKETPV]				reached the highest
H3K9-KKETPV: unmethylated peptide as shown in SEQ ID NO: 23, used as a control (ARTKQTARGGSGGSGGSWGGSKKETPVAV)				no significant red fluorescence

Continued, in another order:

effect on the interaction between P53 and MDM2 in cells (accumulation of red fluorescent signal in the second phase) [1]	effect on the interaction between P53 and MDM2 (red fluorescence signal in the phase transition droplets) [2]	effect on the interaction between FRB and FKBP (red fluorescence signal in the phase transition droplets) [3]	Compound	red fluorescence signal (mCherry) in the phase transition droplets (CD)
significantly inhibit	significantly inhibit		CC(C)(C)C[C@@H]1N[C@@H](C(=O)N[C@H]2CC[C@H](O)CC2)[C@H](c2cccc(Cl)c2F)[C@]12C(=O)Nc1cc(Cl)ccc12 [MI-773]	
	does not affect	does not affect	CC1(C)S[C@@H]2[C@H](NC(=O)[C@H](N)c3ccccc3)C(=O)N2[C@H]1C(=O)O [ampicillin]	
